Reference: patent US20090239918A1, “SELECTIVE SUBTYPE ALPHA 2 ADRENERGIC AGENTS AND METHODS FOR USE THEREOF” (ALLERGAN, INC., priority 2008, published 2009)

How the values were obtained:
[1] = molecular target: T1, Alpha 2B receptor (Homo sapiens, UniProt P18089); assay: RSAT (Receptor Selection and Amplification Technology) assay, alpha 2B; type: cell-based; conditions: for EC50: NIH-3T3 cells cotransfected with receptor and Gq/i5, na = not active; for RSAT (rel eff) Alpha 2B, intrinsic activity: ratio of maximal effect of the drug to maximal effect of standard full agonist brimonidine
T1 construct: expressed in transfected cells; host or cells: NIH-3T3
T1 sequence (P18089 1-450): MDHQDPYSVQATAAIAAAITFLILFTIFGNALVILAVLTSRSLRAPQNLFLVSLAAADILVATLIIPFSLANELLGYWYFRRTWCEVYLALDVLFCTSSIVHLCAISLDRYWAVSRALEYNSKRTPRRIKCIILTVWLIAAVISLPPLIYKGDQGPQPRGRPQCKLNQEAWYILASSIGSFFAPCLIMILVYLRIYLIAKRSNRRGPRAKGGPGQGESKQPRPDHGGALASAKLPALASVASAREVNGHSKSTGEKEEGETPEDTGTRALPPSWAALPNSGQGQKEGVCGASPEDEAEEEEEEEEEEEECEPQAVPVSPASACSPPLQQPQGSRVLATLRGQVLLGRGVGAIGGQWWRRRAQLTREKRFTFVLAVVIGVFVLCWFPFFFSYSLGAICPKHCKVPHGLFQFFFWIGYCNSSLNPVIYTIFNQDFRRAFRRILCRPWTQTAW
Procedure: (§1) 76, pp. 308-311 (incorporated herein by reference) and is also described below.
(§2) The RSAT assay measures a receptor-mediated loss of contact inhibition that results in selective proliferation of receptor-containing cells in a mixed population of confluent cells. The increase in cell number is assessed with an appropriate transfected marker gene such as β-galactosidase, the activity of which can be easily measured in a 96-well format. Receptors that activate the G protein, Gq, elicit this response. Alpha 2 receptors, which normally couple to Gi, activate the RSAT response when coexpressed with a hybrid Gq protein that has a Gi receptor recognition domain, called Gq/i5.
(§3) NIH-3T3 cells are plated at a density of 2×10^6 cells in 15 cm dishes and maintained in Dulbecco's modified Eagle's medium supplemented with 10% calf serum. One day later, cells are cotransfected by calcium phosphate precipitation with mammalian expression plasmids encoding p-SV-β-galactosidase (5-10 μg), receptor (1-2 μg) and G protein (1-2 μg). 40 μg salmon sperm DNA may also be included in the transfection mixture. Fresh media is added on the following day and 1-2 days later, cells are harvested and frozen in 50 assay aliquots. Cells are thawed and 100 μl added to 100 μL aliquots of various concentrations of drugs in triplicate in 96-well dishes. Incubations continue 72-96 hr at 37° C. After washing with phosphate-buffered saline, β-galactosidase enzyme activity is determined by adding 200 μL of the chromogenic substrate (consisting of 3.5 mM o-nitrophenyl-β-D-galactopyranoside and 0.5% nonidet P-40 in phosphate buffered saline), incubating overnight at 30° C. and measuring optical density at 420 nm. The absorbance is a measure of enzyme activity, which depends on cell number and reflects a receptor-mediated cell proliferation. The efficacy or intrinsic activity is calculated as a ratio of the maximal effect of the drug to the maximal effect of a standard full agonist for each receptor subtype. Brimonidine, the chemical structure of which is shown below, is used as the standard agonist for the alpha 2B and alpha 2C receptors.

[2] = molecular target: T2, Alpha 2C receptor (Homo sapiens, UniProt P18825); assay: RSAT (Receptor Selection and Amplification Technology) assay, alpha 2C; type: cell-based; conditions: for EC50: NIH-3T3 cells cotransfected with receptor and Gq/i5, na = not active; for RSAT (rel eff) Alpha 2C, intrinsic activity: ratio of maximal effect of the drug to maximal effect of standard full agonist brimonidine
T2 construct: expressed in transfected cells; host or cells: NIH-3T3
T2 sequence (P18825 1-462): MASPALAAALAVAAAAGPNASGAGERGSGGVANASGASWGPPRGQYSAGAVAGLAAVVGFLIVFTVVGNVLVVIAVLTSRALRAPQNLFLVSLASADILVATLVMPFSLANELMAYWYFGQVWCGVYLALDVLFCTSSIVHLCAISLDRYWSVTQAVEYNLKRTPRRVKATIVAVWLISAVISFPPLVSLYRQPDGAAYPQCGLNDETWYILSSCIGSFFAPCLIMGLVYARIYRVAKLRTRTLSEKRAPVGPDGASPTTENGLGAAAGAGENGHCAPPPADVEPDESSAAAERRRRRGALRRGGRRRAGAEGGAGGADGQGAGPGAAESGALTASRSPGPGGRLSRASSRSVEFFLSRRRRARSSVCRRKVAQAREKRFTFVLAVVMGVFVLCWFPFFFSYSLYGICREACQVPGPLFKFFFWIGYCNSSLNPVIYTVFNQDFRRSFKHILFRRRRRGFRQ
Procedure: as §1, §2, §3

Row | EC50 [1] [nM] | RSAT (rel eff) Alpha 2B, intrinsic activity [1] | EC50 [2] [nM] | RSAT (rel eff) Alpha 2C, intrinsic activity [2] | SMILES
1 | 5.11 | 0.74 | 6.78 | 0.46 | Cc1ccc(CC(/N=C2\NCCO2)c2cccc(Cl)c2)cc1 (centres unmarked)
2 | 12.5 | 0.89 | – | – | Fc1cccc(Cl)c1CC(N=C1NCCN1)c1cccc(Cl)c1Cl (centres unmarked)
3 | 3.29 | 0.89 | 8.34 | 0.46 | Cc1ccccc1CC(/N=C1/NCCS1)c1cccc(Cl)c1 (centres unmarked)
4 | 7.64 | 0.77 | – | – | Cc1c(Cl)cccc1C(Cc1ccccc1)N=C1NCCN1 (centres unmarked)
5 | 7.14 | 0.83 | 4.39 | 0.37 | Clc1cccc(C(Cc2ccccc2)/N=C2\NCCO2)c1 (centres unmarked)
6 | 1.02 | 0.98 | 3.92 | 0.39 | Clc1ccc(Cl)c(CC(N=C2NCCN2)c2cccc(Cl)c2Cl)c1 (centres unmarked)
7 | 3.69 | 0.95 | 3.36 | 0.45 | c1ccc(CC(/N=C2\NCCO2)c2ccccc2)cc1 (centres unmarked)
8 | 0.86 | 0.92 | – | – | Clc1cccc(C(Cc2ccccc2Br)NC2=NCCO2)c1 (centres unmarked)
9 | 5.61 | 0.69 | – | – | Cc1ccc(CC(N=C2NCCN2)c2cccc(Cl)c2)cc1 (centres unmarked)
10 | 1.91 | 1.00 | – | – | COc1cccc(CC(N=C2NCCN2)c2cccc(Cl)c2Cl)c1 (centres unmarked)
11 | 0.9 | 1.20 | 5.74 | 0.42 | Clc1cc(Cl)cc(CC(N=C2NCCN2)c2cccc(Cl)c2Cl)c1 (centres unmarked)
12 | 3.69 | 0.89 | 9.48 | 0.45 | Cc1cccc(C(Cc2ccccc2)/N=C2/NCCS2)c1C (centres unmarked)
13 | 1.92 | 0.87 | – | – | Cc1ccccc1CC(N=C1NCCN1)c1cccc(Cl)c1 (centres unmarked)
14 | 3.48 | 0.89 | 13.4 | 0.39 | Cc1cccc(C(Cc2ccccc2)/N=C2\NCCO2)c1C (centres unmarked)
15 | 4.54 | 0.89 | 6.48 | 0.38 | Fc1c(Cl)cccc1C(Cc1ccccc1)/N=C1/NCCS1 (centres unmarked)
16 | 0.63 | 0.91 | – | – | COc1ccccc1CC(NC1=NCCO1)c1cccc(Cl)c1 (centres unmarked)
17 | 3.09 | 0.89 | – | – | Clc1cccc(C(Cc2ccccc2)N=C2NCCN2)c1Cl (centres unmarked)
18 | 2.79 | 1.17 | – | – | Clc1ccc(CC(N=C2NCCN2)c2cccc(Cl)c2Cl)c(Cl)c1 (centres unmarked)
19 | 6.49 | 0.89 | 4.71 | 0.33 | Clc1cccc(C(Cc2ccccc2)/N=C2/NCCS2)c1 (centres unmarked)

The remaining lines, values behind:

Row | SMILES | EC50 [1] [nM] | RSAT (rel eff) Alpha 2B, intrinsic activity [1] | EC50 [2] [nM] | RSAT (rel eff) Alpha 2C, intrinsic activity [2]
20 | COc1ccccc1CC(NC1=NCCN1)c1cccc(Cl)c1 (centres unmarked) | 0.61 | 0.89 | – | –
21 | Cc1cccc(CC(N=C2NCCN2)c2cccc(Cl)c2)c1 (centres unmarked) | 1.52 | 0.81 | 3.7 | 0.38
22 | Clc1ccc(CC(NC2=NCCN2)c2cccc(Cl)c2Cl)cc1Cl (centres unmarked) | 10.8 | 0.96 | – | –
23 | c1ccc(CC(N=C2NCCN2)c2ccccc2)cc1 (centres unmarked) | 6.38 | 0.77 | – | –
24 | Cc1ccc(CC(/N=C2/NCCS2)c2cccc(Cl)c2)cc1 (centres unmarked) | 7.32 | 0.76 | 11.8 | 0.45
25 | Cc1c(F)cccc1CC(N=C1NCCN1)c1cccc(Cl)c1Cl (centres unmarked) | 8.04 | 0.95 | 3.54 | 0.31
26 | Clc1cccc(C(Cc2ccccc2Br)N=C2NCCN2)c1Cl (centres unmarked) | 3.24 | 0.89 | – | –
27 | Oc1cccc(CC(NC2=NCCN2)c2cccc(Cl)c2Cl)c1 (centres unmarked) | 1.55 | 1.05 | – | –
28 | Cc1cccc(CC(/N=C2/NCCS2)c2cccc(Cl)c2)c1 (centres unmarked) | 2.96 | 0.82 | 4.33 | 0.44
29 | Fc1c(Cl)cccc1C(Cc1ccccc1)N=C1NCCN1 (centres unmarked) | 3.57 | 0.85 | 1.97 | 0.39
30 | Cc1ccccc1CC(/N=C1\NCCO1)c1cccc(Cl)c1 (centres unmarked) | 1.52 | 0.87 | 1.46 | 0.39
31 | Fc1ccc(CC(N=C2NCCN2)c2cccc(Cl)c2Cl)cc1 (centres unmarked) | 3.73 | 0.89 | – | –
32 | Clc1cccc(C(Cc2ccccc2)N=C2NCCN2)c1 (centres unmarked) | 5.91 | 0.76 | – | –
33 | Fc1c(Cl)cccc1C(Cc1ccccc1)/N=C1\NCCO1 (centres unmarked) | 2.79 | 0.93 | 2.57 | 0.32
34 | c1ccc(CC(/N=C2/NCCS2)c2ccccc2)cc1 (centres unmarked) | 5.43 | 0.90 | 9.63 | 0.42
35 | Cc1cccc(CC(/N=C2\NCCO2)c2cccc(Cl)c2)c1 (centres unmarked) | 2.79 | 0.92 | 8.56 | 0.63
36 | Cc1cccc(C(Cc2ccccc2)N=C2NCCN2)c1C (centres unmarked) | 2.54 | 0.83 | – | –
